# “And” between values parts separate entries of the source, which are not always exact repeats. Equal entries are not always repeated.
# Tests used:
# [1] = Stability of phosphate crystal form B under storage conditions (XRPD, HPLC purity); assay type: physicochemical
# Description: High performance liquid chromatography (HPLC): the high performance liquid chromatogram was acquired by Agilent 1260 HPLC.
# (§1) The crystal form B of phosphate prepared in this example was put into a 1.5 mL small bottle and the small bottles was placed under different conditions: 40° C./75% RH or 25° C./60% RH for one week in an open state, or 80° C. for 24 h. The obtained samples were subjected to XRPD test and HPLC test, and the sealed samples placed at 5° C. were used as reference samples (Initial) for HPLC purity test. […] The weight gain at 25° C./80% RH is 6.5% compared to 0% RH.
# [2] = Dynamic vapor sorption (DVS); assay type: physicochemical
# Description: Dynamic vapor sorption (DVS): Dynamic vapor sorption (DVS) curves were acquired by DVS Intrinsic of SMS (Surface Measurement Systems). The relative humidity at 25° C. was corrected by deliquescence points of LiCl, Mg(NO3)2 and KCl.
# as §1
# DIO mice [3] = test: Long-term administration on DIO mice: fasting blood glucose; assay type: in vivo; conditions: for inhibition rate of the rise of the blood glucose: end of experiment (28 days), vs model control group; for fasting blood glucose data after the drug was administrated for 28 days: individual animals
# Description: (§2) A solution with a certain concentration was prepared from the crystal form B of the phosphate, and the administration volume was 10 mL/kg.
# (§3) Experimental animals: C57BL16 mice aged for 5 weeks and weighed for about 13-16 g.
# (§4) Grouping and administration scheme: the mice were fed adaptively and divided into a normal control group and a model group which were fed with high-fat feed (Research diets, D 12492). When the fasting blood glucose of the mice was greater than or equal to 7 mM, it was considered that the mice had become DIO mice. The DIO mice could be selected for the hypoglycemic effect test. The DIO mice were stratified and randomly grouped according to the blood glucose and the weight. […] The weight and the fasting blood glucose were measured weekly; the food amount, the remaining food amount and the food intake were recorded; the mice were fasted overnight at the end of administration, the blood was sampled, and the free fatty acid (NEFA), total cholesterol (TCHO), triglyceride (TG), insulin and DPPIV activity were measured by using serum.
# DIO mice [4] = test: Long-term administration on DIO mice: serum metabolic parameters (NEFA, TCHO, TG, insulin); assay type: in vivo, C57BL16 mice; conditions: end of long-term administration; for Serum NEFA / Serum TCHO / Serum TG / Serum insulin: fasted overnight
# Description: Experimental animals: […] Table 18 was a total data table of the metabolic parameters.
# [5] = mouse, in vivo, po
# Description: as §2, §3, §4
# [6] = Long-term administration on DIO mice: weight, food intake, tolerance; conditions: for weight after the drug was administrated for 28 days: individual animals
# Description: as §2, §3, §4
# serum DPPIV [7] = biological target: T1, serum DPPIV (Mus musculus, UniProt P28843); test: Long-term administration on DIO mice: inhibition of serum DPPIV; assay type: in vivo, C57BL16 mice; design: from tissue; host or cells: serum of diet-induced obese C57BL mice after 28 days of oral dosing; conditions: after long-term administration
# T1 sequence (P28843 38-760 limits assumed): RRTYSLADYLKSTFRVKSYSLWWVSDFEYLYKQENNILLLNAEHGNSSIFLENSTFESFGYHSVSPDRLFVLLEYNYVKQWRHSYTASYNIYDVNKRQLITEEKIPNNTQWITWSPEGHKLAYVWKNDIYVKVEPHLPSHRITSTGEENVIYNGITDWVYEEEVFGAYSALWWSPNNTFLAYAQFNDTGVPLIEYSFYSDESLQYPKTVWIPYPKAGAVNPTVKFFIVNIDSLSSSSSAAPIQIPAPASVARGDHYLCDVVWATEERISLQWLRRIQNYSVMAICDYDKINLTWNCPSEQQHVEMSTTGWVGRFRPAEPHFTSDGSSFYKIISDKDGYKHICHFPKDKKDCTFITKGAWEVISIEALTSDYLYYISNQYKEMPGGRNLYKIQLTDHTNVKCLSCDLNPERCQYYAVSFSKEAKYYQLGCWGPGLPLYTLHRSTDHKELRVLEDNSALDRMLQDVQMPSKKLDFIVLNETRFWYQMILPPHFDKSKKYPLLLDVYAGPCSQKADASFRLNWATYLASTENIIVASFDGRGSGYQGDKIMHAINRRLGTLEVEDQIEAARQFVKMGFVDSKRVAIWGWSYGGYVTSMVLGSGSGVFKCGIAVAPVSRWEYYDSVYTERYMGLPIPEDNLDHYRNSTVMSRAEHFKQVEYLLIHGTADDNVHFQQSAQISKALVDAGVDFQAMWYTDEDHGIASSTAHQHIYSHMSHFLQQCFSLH
# Description: Table 18 was a total data table of the metabolic parameters.
# serum DPPIV [8] = biological target: T1, serum DPPIV; test: PK/PD experiment of ICR mice: activity of serum DPPIV; assay type: in vivo, CD-1 (ICR) mice; design: the plasma concentration and the DPPIV activity were detected by using plasma; from tissue; host or cells: blood plasma/serum of CD-1 (ICR) mice after oral dosing; conditions: ICR mice, 0.1, 0.3, 1 and 3 mg/kg intragastric (FIG. 28)
# Description: Experimental animals: CD-1 (ICR) mice aged for 4 weeks and weighed for about 18-22 g.
# Grouping and administration scheme: the mice were fed adaptively, randomly grouped according to the weight on the day before experiment, and fasted overnight. […] After the experimental grouping, the group provided separately for detecting the initial basic value of DPPIV was carried out blood sampling, and other animals were intragastrically administrated with the drug at an administration volume of 10 mL/kg, the blood was sampled after the administration, and all other animals were stimulated with glucose administration; the blood was sampled at 20 min, 40 min, 60 min and 120 min after the glucose administration, respectively, and the plasma concentration and the DPPIV activity were detected by using plasma.
smiles,measurement,setting,value
"C[C@@H]1c2cnc(C(F)(F)F)n2CCN1C(=O)C[C@H](N)Cc1cc(F)c(F)cc1F [DPPIV-P1, (8R)-7-[(3R)-3-amino-1-oxo-4-(2,4,5-trifluorophenyl)butyl]-5,6,7,8-tetrahydro-8-methyl-3-(trifluoromethyl)imidazo[1,5-a]pyrazine]",Crystal form,"[1]; 25° C./60% RH, one week",Phosphate crystal form B
same,Purity (area %),"[1]; 25° C./60% RH, one week, open",99.65 area %
same,Crystal form,"[1]; 40° C./75% RH, one week",Phosphate crystal form B
same,Purity (area %),"[1]; 40° C./75% RH, one week, open",99.64 area %
same,Appearance,[1]; 80° C. for 24 h,changed from white solid into yellow solid
same,Crystal form,"[1]; 80° C., 24 h",Phosphate crystal form B
same,Purity (area %),"[1]; 80° C., 24 h",99.48 area %
same,Crystal form,[1]; Initial,Phosphate crystal form B
same,Purity (area %),[1]; Initial (sealed reference sample placed at 5° C.),99.78 area %
same,weight gain (DVS),[2]; 25° C./80% RH compared to 0% RH,6.5%
same,crystal form before and after the DVS test (XRPD),[2]; after DVS test,the crystal form remained unchanged
same,Fasting blood glucose,"DIO mice [3]; 0.3 mg/kg daily intragastric, D 1",8.3 ± 1.1 mmol/L
same,Fasting blood glucose,"DIO mice [3]; 0.3 mg/kg daily intragastric, D 3",8.4 ± 0.9 mmol/L
same,Fasting blood glucose,"DIO mice [3]; 0.3 mg/kg daily intragastric, D 7",8.4 ± 1.0 mmol/L
same,Fasting blood glucose,"DIO mice [3]; 0.3 mg/kg daily intragastric, D 14",8.9 ± 1.1 mmol/L
same,Fasting blood glucose,"DIO mice [3]; 0.3 mg/kg daily intragastric, D 21",8.5 ± 1.0 mmol/L
same,Fasting blood glucose,"DIO mice [3]; 0.3 mg/kg daily intragastric, D 28",8.3 ± 0.8 mmol/L
same,inhibition rate of the rise of the blood glucose,DIO mice [3]; 0.3 mg/kg,14.2%
same,Fasting blood glucose,"DIO mice [3]; 3 mg/kg daily intragastric, D 1",8.3 ± 1.1 mmol/L
same,Fasting blood glucose,"DIO mice [3]; 3 mg/kg daily intragastric, D 3",8.3 ± 0.9 mmol/L
same,Fasting blood glucose,"DIO mice [3]; 3 mg/kg daily intragastric, D 7",8.6 ± 2.2 mmol/L
same,Fasting blood glucose,"DIO mice [3]; 3 mg/kg daily intragastric, D 14",9.1 ± 1.6 mmol/L
same,Fasting blood glucose,"DIO mice [3]; 3 mg/kg daily intragastric, D 21",8.6 ± 1.0 mmol/L
same,Fasting blood glucose,"DIO mice [3]; 3 mg/kg daily intragastric, D 28",8.7 ± 0.9 mmol/L
same,inhibition rate of the rise of the blood glucose,DIO mice [3]; 3 mg/kg,9.9%
same,Fasting blood glucose,"DIO mice [3]; 30 mg/kg daily intragastric, D 1",8.3 ± 1.0 mmol/L
same,Fasting blood glucose,"DIO mice [3]; 30 mg/kg daily intragastric, D 3",7.8 ± 1.5 mmol/L
same,Fasting blood glucose,"DIO mice [3]; 30 mg/kg daily intragastric, D 7",7.9 ± 0.8 mmol/L
same,Fasting blood glucose,"DIO mice [3]; 30 mg/kg daily intragastric, D 14",7.7 ± 0.7 mmol/L
same,Fasting blood glucose,"DIO mice [3]; 30 mg/kg daily intragastric, D 21",8.1 ± 0.6 mmol/L
same,Fasting blood glucose,"DIO mice [3]; 30 mg/kg daily intragastric, D 28",7.9 ± 0.6 mmol/L
same,inhibition rate of the rise of the blood glucose,DIO mice [3]; 30 mg/kg,18.5%
same,fasting blood glucose data after the drug was administrated for 28 days,DIO mice [3]; 0.3 mg/kg,10.3 and 8 (3×) and 7.3 (2×) and 8.8 and 8.7 and 8.3 and 8.6 and 7.9
same,fasting blood glucose data after the drug was administrated for 28 days,DIO mice [3]; 3 mg/kg,9.2 and 7.8 (2×) and 9.8 and 8.9 and 9 and 7.3 and 9.7 and 8 and 8.3 and 10
same,fasting blood glucose data after the drug was administrated for 28 days,"DIO mice [3]; 30 mg/kg, listed as DPPIV-PI",8.5 and 7.3 and 7.4 (3×) and 7.6 and 8.9 and 8.2 (2×) and 7.5 and 7.8
same,decrease of insulin compared with the model control group,DIO mice [4]; 0.3 mg/kg,28.3%
same,Serum NEFA,DIO mice [4]; 0.3 mg/kg,1.21 ± 0.07 mmol/L
same,Serum TCHO,DIO mice [4]; 0.3 mg/kg,5.01 ± 0.58 mmol/L
same,Serum TG,DIO mice [4]; 0.3 mg/kg,1.04 ± 0.13 mmol/L
same,Serum insulin,DIO mice [4]; 0.3 mg/kg,3.2 ± 2.44 ng/mL
same,Serum NEFA,DIO mice [4]; 3 mg/kg,1.08 ± 0.14 mmol/L
same,Serum TCHO,DIO mice [4]; 3 mg/kg,5.06 ± 0.65 mmol/L
same,Serum TG,DIO mice [4]; 3 mg/kg,0.94 ± 0.15 mmol/L
same,Serum insulin,DIO mice [4]; 3 mg/kg,4.7 ± 3.55 ng/mL
same,decrease of total cholesterol (TCHO) compared with the model control group,DIO mice [4]; 30 mg/kg,18.4%
same,Serum NEFA,DIO mice [4]; 30 mg/kg,1.01 ± 0.11 mmol/L
same,Serum TCHO,DIO mice [4]; 30 mg/kg,4.36 ± 0.45 mmol/L
same,Serum TG,DIO mice [4]; 30 mg/kg,0.83 ± 0.11 mmol/L
same,Serum insulin,DIO mice [4]; 30 mg/kg,4.9 ± 4.04 ng/mL
same,tolerance after long-term administration,[5],good in tolerance and not easy to induce hypoglycemia
same,Food intake,[6]; 0.3 mg/kg,2.2 ± 0.3 g/day
same,weight,"[6]; 0.3 mg/kg daily, D1",38.9 ± 3.8 g
same,weight,"[6]; 0.3 mg/kg daily, D7",37.4 ± 3.4 g
same,weight,"[6]; 0.3 mg/kg daily, D14",38.2 ± 4.2 g
same,weight,"[6]; 0.3 mg/kg daily, D21",40.2 ± 4.2 g
same,weight,"[6]; 0.3 mg/kg daily, D28",39.5 ± 5.0 g
same,weight,"[6]; 0.3 mg/kg, total data table of metabolic parameters (end of experiment)",39.5 ± 5.0 g
same,Food intake,[6]; 3 mg/kg,2.2 ± 0.3 g/day
same,weight,"[6]; 3 mg/kg daily, D1",41.5 ± 3.5 g
same,weight,"[6]; 3 mg/kg daily, D7",40.9 ± 4.2 g
same,weight,"[6]; 3 mg/kg daily, D14",43.1 ± 4.9 g
same,weight,"[6]; 3 mg/kg daily, D21",44.2 ± 5.1 g
same,weight,"[6]; 3 mg/kg daily, D28",45.0 ± 5.4 g
same,weight,"[6]; 3 mg/kg, total data table of metabolic parameters (end of experiment)",45.0 ± 5.4 g
same,Food intake,[6]; 30 mg/kg,2.2 ± 0.4 g/day
same,weight,"[6]; 30 mg/kg daily, D1",41.5 ± 3.1 g
same,weight,"[6]; 30 mg/kg daily, D7",40.5 ± 3.0 g
same,weight,"[6]; 30 mg/kg daily, D14",41.2 ± 4.4 g
same,weight,"[6]; 30 mg/kg daily, D21",41.3 ± 3.5 g
same,weight,"[6]; 30 mg/kg daily, D28",42.9 ± 5.6 g
same,weight,"[6]; 30 mg/kg, total data table of metabolic parameters (end of experiment)",42.9 ± 5.6 g
same,weight after the drug was administrated for 28 days,[6]; 0.3 mg/kg,39.9 (2×) and 31.0 and 34.8 and 41.6 and 32.2 and 40.5 and 40.8 and 45.6 and 47.1 and 41.0
same,weight after the drug was administrated for 28 days,[6]; 3 mg/kg,46.8 (2×) and 42.6 and 54.1 and 48.3 and 34.4 and 42.2 and 43.1 and 46.4 and 39.7 and 50.2
same,weight after the drug was administrated for 28 days,"[6]; 30 mg/kg, in g",46.6 and 36.5 and 43.6 and 36.8 and 36.7 and 39.3 and 38.7 and 48.2 and 51.8 and 48.6 and 41.0
same,inhibition effect on the serum DPPIV compared with sitagliptin phosphate,serum DPPIV [7],obviously higher than that of sitagliptin phosphate
same,inhibition at 0.3 mg/kg,"serum DPPIV [7]; mouse, 0.3 mg/kg, vs model control group, read-out: inhibition rate against DPPIV (serum)",47.1%
same,inhibition at 3 mg/kg,"serum DPPIV [7]; mouse, 3 mg/kg, vs model control group, read-out: inhibition rate against DPPIV (serum)",82.7%
same,inhibition at 30 mg/kg,"serum DPPIV [7]; mouse, 30 mg/kg, vs model control group, read-out: inhibition rate against DPPIV (serum)",95.3%
same,influence on the activity of serum DPPIV,serum DPPIV [8],good dose-effect relationship
